Each compound was assayed against T1, PD-1/PD-L1 (Homo sapiens, UniProt Q9NZQ7) (assay: PD-1/PD-L1 homogenous time-resolved fluorescence (HTRF) binding assay). Conditions: recombinant human PD-L1 (19-238) His-tag / human PD-1 (25-167) Fc tag, class symbols.
T1 construct: Recombinant human PD-L1 protein (19-238) with a His-tag at the C-terminus; purchased AcroBiosystems PD1-H5229 (PD-L1); PD1-H5257 (PD-1)
How it was run: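 HTRF binding of human PD-1 (25-167, Fc-tagged) at 3 nM and PD-L1 (19-238, His-tagged) at 10 nM, preincubated 40 min with inhibitor in PBS pH 7.4, 0.05% Tween-20, 0.1% BSA, 1% DMSO, 25°C. Eu anti-IgG (1 nM) and anti-His-APC (20 nM) added, 60 min; 665/620 nm ratio; IC50 from curve fit.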

T1 sequence (Q9NZQ7 19-238): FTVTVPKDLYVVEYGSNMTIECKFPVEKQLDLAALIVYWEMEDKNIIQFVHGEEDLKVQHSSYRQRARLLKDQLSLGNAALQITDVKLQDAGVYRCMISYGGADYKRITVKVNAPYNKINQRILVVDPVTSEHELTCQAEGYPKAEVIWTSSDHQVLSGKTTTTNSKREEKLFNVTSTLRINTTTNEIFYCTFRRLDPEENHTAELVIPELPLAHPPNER

**Q.** Which IC50 does the source give for `NC(=O)CN1C2CCC1c1sc(C(=O)N3CCc4c(-c5cccc6c5CCN6C(=O)c5nc6c(s5)C5CCC(C6)N5CC(=O)O)cccc43)nc1C2` (stereo not drawn) [Example 111, 2-(2-(1′-(9-(2-amino-2-oxoethyl)-5,6,7,8-tetrahydro-4H-5,8-epiminocyclohepta[d]thiazole-2-carbonyl)-[4,4′-biindoline]-1-carbonyl)-5,6,7,8-tetrahydro-4H-5,8-epiminocyclohepta[d]thiazol-9-yl)acetic acid] here?
**A.** The IC50 was less than 25 nM.

**Q.** Which IC50 does the source give for `CN(C)Cc1cnc(C(=O)N2CCc3c(-c4cccc5c4CCN5C(=O)c4ncc(CN(C)C)s4)cccc32)s1` [Example 112, [4,4′-biindoline]-1,1′-diylbis((5-((dimethylamino)methyl)thiazol-2-yl)methanone)] here?
**A.** The IC50 was less than 25 nM.

**Q.** For `CNCc1cnc(C(=O)N2CCc3c(-c4cccc5c4CCN5C(=O)c4ncc(CNC)s4)cccc32)s1` [Example 113, [4,4′-biindoline]-1,1′-diylbis((5-((methylamino)methyl)thiazol-2-yl)methanone)], which IC50 is on record?
**A.** The IC50 was less than 25 nM.

**Q.** `Cc1nc(C(=O)N2CCc3c(-c4cccc(NC(=O)c5ncc(CN(C)CCO)s5)c4)cccc32)sc1CN(C)C` [Example 114, N-(3-(1-(5-((dimethylamino)methyl)-4-methylthiazole-2-carbonyl)indolin-4-yl)phenyl)-5-(((2-hydroxyethyl)(methyl)amino)methyl)thiazole-2-carboxamide] was tested. Which IC50 did it give?
**A.** The IC50 was less than 25 nM.

**Q.** `Cc1nc(C(=O)N2CCc3c(-c4cccc5c4CCN5C(=O)c4ncc(CN(C)CCO)s4)cccc32)sc1CN(C)C` [Example 115, (5-((dimethylamino)methyl)-4-methylthiazol-2-yl)(1′-(5-(((2-hydroxyethyl)(methyl)amino)methyl)thiazole-2-carbonyl)-[4,4′-biindolin]-1-yl)methanone] was tested. Which IC50 did it give?
**A.** Its IC50 is less than 25 nM.

**Q.** Which IC50 does the source give for `CN(CCO)Cc1cnc(C(=O)N2CCc3c(-c4cccc5c4CCN5C(=O)c4ncc(CN(C)CCO)s4)cccc32)s1` [Example 116, [4,4′-biindoline]-1,1′-diylbis((5-(((2-hydroxyethyl)(methyl)amino)methyl)thiazol-2-yl)methanone)] here?
**A.** Its IC50 is less than 25 nM.

**Q.** `CS(=O)(=O)NCCN1CCc2nc(C(=O)N3CCc4c(-c5cccc6c5CCN6C(=O)c5nc6c(s5)CN(CCNS(C)(=O)=O)CC6)cccc43)sc2C1` [Example 117, N,N′-((([4,4′-biindoline]-1,1′-dicarbonyl)bis(6,7-dihydrothiazolo[5,4-c]pyridine-2,5(4H)-diyl))bis(ethane-2,1-diyl))dimethanesulfonamide] was tested. Which IC50 did it give?
**A.** The IC50 was less than 25 nM.

**Q.** Which IC50 does the source give for `CN(CCN1CCc2nc(C(=O)N3CCc4c(-c5cccc6c5CCN6C(=O)c5nc6c(s5)CN(CCN(C)S(C)(=O)=O)CC6)cccc43)sc2C1)S(C)(=O)=O` [Example 118, N,N′-((([4,4′-biindoline]-1,1′-dicarbonyl)bis(6,7-dihydrothiazolo[5,4-c]pyridine-2,5(4H)-diyl))bis(ethane-2,1-diyl))bis(N-methylmethanesulfonamide)] here?
**A.** The IC50 was less than 25 nM.

**Q.** With `O=C(O)CN1CCc2sc(C(=O)N3CCc4c(-c5cccc6c5CCN6C(=O)c5nc6c(s5)CCN(CC(=O)O)C6)cccc43)nc2C1` [Example 119, 2,2′-(([4,4′-biindoline]-1,1′-dicarbonyl)bis(6,7-dihydrothiazolo[4,5-c]pyridine-2,5(4H)-diyl))diacetic acid] as the compound, how does the IC50 read?
**A.** Its IC50 is less than 25 nM.

**Q.** For `O=C(c1nc2c(s1)CN(CCOCCO)CC2)N1CCc2c(-c3cccc4c3CCN4C(=O)c3nc4c(s3)CN(CCOCCO)CC4)cccc21` [Example 120, [4,4′-biindoline]-1,1′-diylbis((5-(2-(2-hydroxyethoxy)ethyl)-4,5,6,7-tetrahydrothiazolo[5,4-c]pyridin-2-yl)methanone)], which IC50 is on record?
**A.** Its IC50 is less than 25 nM.

**Q.** How did the IC50 turn out when `O=C(c1nc2c(s1)CN(CCCB(O)O)CC2)N1CCc2c(-c3cccc4c3CCN4C(=O)c3nc4c(s3)CN(CCCB(O)O)CC4)cccc21` [Example 121, ((([4,4′-biindoline]-1,1′-dicarbonyl)bis(6,7-dihydrothiazolo[5,4-c]pyridine-2,5(4H)-diyl))bis(propane-3,1-diyl))diboronic acid] was run?
**A.** Its IC50 is less than 25 nM.

**Q.** `COB(CCCN1CCc2nc(C(=O)N3CCc4c(-c5cccc6c5CCN6C(=O)c5nc6c(s5)CN(CCCB(OC)OC)CC6)cccc43)sc2C1)OC` [Example 122, tetramethyl((([4,4′-biindoline]-1,1′-dicarbonyl)bis(6,7-dihydrothiazolo[5,4-c]pyridine-2,5(4H)-diyl))bis(propane-3,1-diyl))diboronate] was tested. Which IC50 did it give?
**A.** The IC50 was less than 25 nM.

**Q.** With `COP(=O)(CN1CCc2nc(C(=O)N3CCc4c(-c5cccc6c5CCN6C(=O)c5nc6c(s5)CN(CP(=O)(OC)OC)CC6)cccc43)sc2C1)OC` [Example 123, dimethyl ((2-(1′-(5-((dimethoxyphosphoryl)methyl)-4,5,6,7-tetrahydrothiazolo[5,4-c]pyridine-2-carbonyl)-[4,4′-biindoline]-1-carbonyl)-6,7-dihydrothiazolo[5,4-c]pyridin-5(4H)-yl)methyl)phosphonate] as the compound, how does the IC50 read?
**A.** Its IC50 is less than 25 nM.

**Q.** With `COP(=O)(CCN1CCc2nc(C(=O)N3CCc4c(-c5cccc6c5CCN6C(=O)c5nc6c(s5)CN(CCP(=O)(OC)OC)CC6)cccc43)sc2C1)OC` [Example 124, dimethyl (2-(2-(1′-(5-(2-(dimethoxyphosphoryl)ethyl)-4,5,6,7-tetrahydrothiazolo[5,4-c]pyridine-2-carbonyl)-[4,4′-biindoline]-1-carbonyl)-6,7-dihydrothiazolo[5,4-c]pyridin-5(4H)-yl)ethyl)phosphonate] as the compound, how does the IC50 read?
**A.** The IC50 was less than 25 nM.

**Q.** Which IC50 does the source give for `O=C(c1nc2c(s1)CN(Cc1nn[nH]n1)CC2)N1CCc2c(-c3cccc4c3CCN4C(=O)c3nc4c(s3)CN(Cc3nn[nH]n3)CC4)cccc21` [Example 125, [4,4′-biindoline]-1,1′-diylbis((5-((2H-tetrazol-5-yl)methyl)-4,5,6,7-tetrahydrothiazolo[5,4-c]pyridin-2-yl)methanone)] here?
**A.** The IC50 was less than 25 nM.

**Q.** With `CS(=O)(=O)NCCN1C2CCC1c1sc(C(=O)N3CCc4c(-c5cccc6c5CCN6C(=O)c5nc6c(s5)C5CCC(C6)N5CCNS(C)(=O)=O)cccc43)nc1C2` [Example 126, N,N′-((([4,4′-biindoline]-1,1′-dicarbonyl)bis(5,6,7,8-tetrahydro-4H-5,8-epiminocyclohepta[d]thiazole-2,9-diyl))bis(ethane-2,1-diyl))dimethanesulfonamide] as the compound, how does the IC50 read?
**A.** The IC50 was less than 25 nM.

**Q.** `CC(C(=O)NS(C)(=O)=O)N1CCc2nc(C(=O)N3CCc4c(-c5cccc6c5CCN6C(=O)c5nc6c(s5)CN(C(C)C(=O)NS(C)(=O)=O)CC6)cccc43)sc2C1` (stereo not drawn) [Example 127, 2,2′-(([4,4′-biindoline]-1,1′-dicarbonyl)bis(6,7-dihydrothiazolo[5,4-c]pyridine-2,5(4H)-diyl))bis(N-(methylsulfonyl)propanamide)] was tested. Which IC50 did it give?
**A.** The IC50 was less than 25 nM.

**Q.** For `CC(C)(C(=O)NS(C)(=O)=O)N1CCc2nc(C(=O)N3CCc4c(-c5cccc6c5CCN6C(=O)c5nc6c(s5)CN(C(C)(C)C(=O)NS(C)(=O)=O)CC6)cccc43)sc2C1` [Example 128, 2,2′-(([4,4′-biindoline]-1,1′-dicarbonyl)bis(6,7-dihydrothiazolo[5,4-c]pyridine-2,5(4H)-diyl))bis(2-methyl-N-(methylsulfonyl)propanamide)], which IC50 is on record?
**A.** The IC50 was 25 to 100 nM.

**Q.** For `CS(=O)(=O)NC(=O)C1(N2CCc3nc(C(=O)N4CCc5c(-c6cccc7c6CCN7C(=O)c6nc7c(s6)CN(C6(C(=O)NS(C)(=O)=O)CC6)CC7)cccc54)sc3C2)CC1` [Example 129, 1,1′-(([4,4′-biindoline]-1,1′-dicarbonyl)bis(6,7-dihydrothiazolo[5,4-c]pyridine-2,5(4H)-diyl))bis(N-(methylsulfonyl)cyclopropane-1-carboxamide)], which IC50 is on record?
**A.** Its IC50 is 25 to 100 nM.

**Q.** How did the IC50 turn out when `COC(=O)NCCN1CCc2nc(C(=O)N3CCc4c(-c5cccc6c5CCN6C(=O)c5nc6c(s5)CN(CCNC(=O)OC)CC6)cccc43)sc2C1` [Example 130, dimethyl ((([4,4′-biindoline]-1,1′-dicarbonyl)bis(6,7-dihydrothiazolo[5,4-c]pyridine-2,5(4H)-diyl))bis(ethane-2,1-diyl))dicarbamate] was run?
**A.** The IC50 was less than 25 nM.

**Q.** With `COC(=O)NCC1(N2CCc3nc(C(=O)N4CCc5c(-c6cccc7c6CCN7C(=O)c6nc7c(s6)CN(C6(CNC(=O)OC)CC6)CC7)cccc54)sc3C2)CC1` [Example 131, dimethyl (((([4,4′-biindoline]-1,1′-dicarbonyl)bis(6,7-dihydrothiazolo[5,4-c]pyridine-2,5(4H)-diyl))bis(cyclopropane-1,1-diyl))bis(methylene))dicarbamate] as the compound, how does the IC50 read?
**A.** Its IC50 is 25 to 100 nM.

**Q.** For `COC(=O)NC1(CN2CCc3nc(C(=O)N4CCc5c(-c6cccc7c6CCN7C(=O)c6nc7c(s6)CN(CC6(NC(=O)OC)CC6)CC7)cccc54)sc3C2)CC1` [Example 132, dimethyl (((([4,4′-biindoline]-1,1′-dicarbonyl)bis(6,7-dihydrothiazolo[5,4-c]pyridine-2,5(4H)-diyl))bis(methylene))bis(cyclopropane-1,1-diyl))dicarbamate], which IC50 is on record?
**A.** Its IC50 is 25 to 100 nM.

**Q.** `NC(=S)NCCN1CCc2nc(C(=O)N3CCc4c(-c5cccc6c5CCN6C(=O)c5nc6c(s5)CN(CCNC(N)=S)CC6)cccc43)sc2C1` [Example 133, 1,1′-((([4,4′-biindoline]-1,1′-dicarbonyl)bis(6,7-dihydrothiazolo[5,4-c]pyridine2,5(4H)-diyl))bis(ethane-2,1-diyl))bis(thiourea)] was tested. Which IC50 did it give?
**A.** The IC50 was less than 25 nM.

**Q.** How did the IC50 turn out when `NC(=O)NCCN1CCc2nc(C(=O)N3CCc4c(-c5cccc6c5CCN6C(=O)c5nc6c(s5)CN(CCNC(N)=O)CC6)cccc43)sc2C1` [Example 134, 1,1′-((([4,4′-biindoline]-1,1′-dicarbonyl)bis(6,7-dihydrothiazolo[5,4-c]pyridine-2,5(4H)-diyl))bis(ethane-2,1-diyl))diurea] was run?
**A.** Its IC50 is less than 25 nM.
